# Assay results: ChEMBL document CHEMBL5131429, “Synthesis and antifungal evaluation of phenol-derived bis(indolyl)methanes combined with FLC against Candida albicans” (Bioorg Med Chem Lett, 2022)
# The source made the active and inactive calls. The rule behind the calls is not given here.
# What was measured:
# [1] = test system: Candida albicans; assay: Antifungal activity against Candida albicans CA23 in presence of fluconazole by microdilution method; format: functional
# [2] = test system: Candida albicans; assay: Antifungal activity against Candida albicans SC5314 assessed as fractional inhibitory concentration index in presence of fluconazole by microdilution method; format: functional
# [3] = test system: Candida albicans; assay: Antifungal activity against Candida albicans CA23 by microdilution method; format: functional
# [4] = test system: Candida albicans; assay: Antifungal activity against Candida albicans SC5314 in presence of fluconazole by microdilution method; format: functional
# [5] = test system: Candida albicans; assay: Antifungal activity against Candida albicans SC5314 by microdilution method; format: functional
# [6] = test system: Candida albicans; assay: Antifungal activity against Candida albicans CA23 assessed as fractional inhibitory concentration index in presence of fluconazole by microdilution method; format: functional
# [7] = test system: Candida albicans; assay: Antifungal activity against Candida albicans CA558 by microdilution method; format: functional
# [8] = test system: Candida albicans; assay: Antifungal activity against Candida albicans CA602 by microdilution method; format: functional
# [9] = test system: Candida albicans; assay: Antifungal activity against Candida albicans CA3511 by microdilution method; format: functional
# [10] = test system: Candida albicans; assay: Antifungal activity against Candida albicans CA800 by microdilution method; format: functional
# [11] = test system: Candida albicans; assay: Antifungal activity against Candida albicans CA3816 by microdilution method; format: functional
# [12] = test system: Candida albicans; assay: Antifungal activity against Candida albicans CA187 by microdilution method; format: functional
# [13] = test system: Candida albicans; assay: Antifungal activity against Candida albicans CA5408 by microdilution method; format: functional
# [14] = test system: Candida albicans; assay: Antifungal activity against Candida albicans ATCC14053 by microdilution method; format: functional
# [15] = test system: Candida albicans; assay: Induction of mitochondrial membrane potential loss in Candida albicans at 1 ug/ml after 16 hrs by JC-1 staining based fluorescence microplate reader; format: functional, organism-based; settings: dose 1.0 µg/ml
# [16] = Cytotoxicity against PBMC (unknown origin) by MTT assay; format: toxicity, cell-based
# [17] = Cytotoxicity against human 16HBE by MTS assay; format: toxicity, cell-based; settings: 16HBE14o- cells
Structure (SMILES),MIC80 [1],fractional inhibitory concentration index (FICI) [2],MIC80 [3],MIC80 [4],MIC80 [5],fractional inhibitory concentration index (FICI) [6],MIC80 [7],MIC80 [8],MIC80 [9],MIC80 [10],MIC80 [11],MIC80 [12],MIC80 [13],MIC80 [14],Activity [15],CC50 [16],CC50 [17]
Oc1c(Cl)cc(Cl)cc1C(c1c[nH]c2ccccc12)c1c[nH]c2ccccc12,5.88 µg/mL,0.02,> 200 µg/mL,0.55 µg/mL,> 200 µg/mL,0.02,,,,,,,,,,,
COc1ccc(C(c2c[nH]c3ccccc23)c2c[nH]c3ccccc23)c(O)c1,5.79 µg/mL,0.58,32.7 µg/mL,1.01 µg/mL,1.85 µg/mL,0.18,,,,,,,,,,,
Oc1c(Br)cc(Br)cc1C(c1c[nH]c2ccccc12)c1c[nH]c2ccccc12,6.01 µg/mL,0.11,> 200 µg/mL,2.85 µg/mL,> 200 µg/mL,0.02,,,,,,,,,,,
Oc1ccc(O)c(C(c2c[nH]c3ccccc23)c2c[nH]c3ccccc23)c1,5.7 µg/mL,0.07,5.91 µg/mL,1.05 µg/mL,32.1 µg/mL,0.98,,,,,,,,,,,
Cc1ccc(C(c2c[nH]c3ccccc23)c2c[nH]c3ccccc23)c(O)c1,5.75 µg/mL,0.14,37 µg/mL,3.67 µg/mL,> 200 µg/mL,0.02,,,,,,,,,,,
O=[N+]([O-])c1ccc(O)c(C(c2c[nH]c3ccccc23)c2c[nH]c3ccccc23)c1,29.3 µg/mL,,180 µg/mL,25.6 µg/mL,0.69 µg/mL,0.18,,,,,,,,,,,
Oc1ccc(Cl)cc1C(c1c[nH]c2ccccc12)c1c[nH]c2ccccc12,31.8 µg/mL,0.12,> 200 µg/mL,3.27 µg/mL,> 200 µg/mL,0.1,,,,,,,,,,,
OC(Cn1cncn1)(Cn1cncn1)c1ccc(F)cc1F [FLUCONAZOLE],,,> 200 µg/mL,,5.79 µg/mL,,> 200 µg/mL,> 200 µg/mL,> 200 µg/mL,> 200 µg/mL,> 200 µg/mL,> 200 µg/mL,> 200 µg/mL,> 200 µg/mL,Active,676 µg/mL,> 1000 µg/mL
Oc1cc(F)c(Br)cc1C(c1c[nH]c2ccccc12)c1c[nH]c2ccccc12,5.95 µg/mL,0.2,> 200 µg/mL,0.82 µg/mL,4.97 µg/mL,0.02,,,,,,,,,,,
